# Counter-ions that a name gives are not always drawn. Like-named read-outs stand apart in the source and are kept apart here.
# Assays:
# [1] = system: MLKL phosphorylation in HT29-L23 human colorectal adenocarcinoma cells; assay: MLKL Phosphorylation High-Content Assay; format: cell-based; conditions: necroptosis induced with TNFα, SMAC mimetic and Z-VAD, 6 h, read-out: pMLKL (IC50)
# In short: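 HT29-L23 cells pretreated 30 min at 37 °C with compound (6.25 to 0.106 μM final), then necroptosis induced with TNFα 35 ng/mL, SMAC mimetic 700 nM and Z-VAD 140 nM for 6 h. Fixed cells immunostained for MLKL pS358 and imaged; IC50 and Ymax from 4-parameter logistic fit.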
# [2] = target: His-GST-TVMV-hRIPK1(1-324) (Homo sapiens (Human), UniProt Q13546); assay: RIPK1 HTRF Binding Assay; conditions: HTRF binding, 1 h at rt; read-out: RIPK1 (IC50)
# Sequence of His-GST-TVMV-hRIPK1(1-324) (Q13546 1-324): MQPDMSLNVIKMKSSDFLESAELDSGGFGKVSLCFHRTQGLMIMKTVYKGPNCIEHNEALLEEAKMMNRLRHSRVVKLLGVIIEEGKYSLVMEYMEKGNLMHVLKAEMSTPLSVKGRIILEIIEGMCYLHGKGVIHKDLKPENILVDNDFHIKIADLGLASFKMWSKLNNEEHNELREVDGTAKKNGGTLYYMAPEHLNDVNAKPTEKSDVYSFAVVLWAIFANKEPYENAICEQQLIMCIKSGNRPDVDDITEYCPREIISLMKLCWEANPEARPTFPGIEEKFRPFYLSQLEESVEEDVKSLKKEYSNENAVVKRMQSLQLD
# In short: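 HTRF probe-displacement binding: 1 nM His-GST-TVMV-hRIPK1(1-324) (baculovirus construct), 90.6 nM probe, 0.2 nM anti-GST-Tb in 20 mM HEPES, 10 mM MgCl2, 0.015% Brij-35, 4 mM DTT, 0.05 mg/mL BSA. Incubated 1 h at rt; FRET 520/495 nm ratio, inhibition relative to DMSO-only wells.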
compound,measurement,setting,value
"[2H]C([2H])([2H])Oc1ncc(-c2ccc3nc(NC(C)=O)cn3n2)cc1C(=O)NC(C)c1cc(C(F)(F)F)ccc1F (centres unmarked) [Example 52, 5-{2-acetamidoimidazo[1,2-b]pyridazin-6-yl}-N-{1-[2-fluoro-5-(trifluoromethyl)phenyl]ethyl}-2-(D3)methoxypyridine-3-carboxamide]",IC50,[1],185 nM
same,IC50,[2],65 nM
"COc1ncc(-c2ccc3nc(NC(C)=O)cn3n2)cc1C(=O)NCc1ccccc1OCC1CC1 [Example 22, N-{[2-(cyclopropylmethoxy)phenyl]methyl}-5-{2-acetamidoimidazo[1,2-b]pyridazin-6-yl}-2-methoxypyridine-3-carboxamide]",IC50,[1]; Homo sapiens,26 nM
same,IC50,[2],4 nM
"CC(=O)Nc1cn2nc(-c3ccc(Cl)c(C(=O)NCc4cc(-c5cnn(C)c5)ccc4F)c3F)ccc2n1 [Example 389, 6-chloro-3-{2-acetamidoimidazo [1,2-b]pyridazin-6-yl}-2-fluoro-N-{[2-fluoro-5-(1-methyl-1H-pyrazol-4-yl)phenyl]methyl} benzamide]",IC50,[1]; Homo sapiens,8 nM
same,IC50,[2],4 nM
"COc1nc(C)c(-c2ccc3nc(NC(C)=O)cn3n2)cc1C(=O)NCc1c(F)cc(F)cc1OCC1CC1 [Example 298, N-{[2-(cyclopropylmethoxy)-4,6-difluorophenyl]methyl}-5-{2-acetamidoimidazo[1,2-b]pyridazin-6-yl}-2-methoxy-6-methylpyridine-3-carboxamide]",IC50,[1]; Homo sapiens,79 nM
same,IC50,[2],43 nM
"COc1ncc(-c2ccc3nc(NC(C)=O)cn3n2)cc1C(=O)NCCC(O)c1ccc(Cl)cc1 (centres unmarked) [Example 23, N-[3-(4-chlorophenyl)-3-hydroxypropyl]-5-{2-acetamidoimidazo[1,2-b]pyridazin-6-yl}-2-methoxypyridine-3-carboxamide]",IC50,[1]; Homo sapiens,127 nM
same,IC50,[2],124 nM
"CCC(=O)Nc1cn2nc(-c3cnc(OC)c(C(=O)N[C@H](C)c4cc(OC(F)(F)F)ccc4F)c3)ccc2n1 [Example 245, N-[(1R)-1-[2-fluoro-5-(trifluoromethoxy)phenyl]ethyl]-2-methoxy-5-{2-propanamidoimidazo[1,2-b]pyridazin-6-yl}pyridine-3-carboxamide]",IC50,[1]; Homo sapiens,132 nM
same,IC50,[2],486 nM
"Cc1ncc(-c2ccc3nc(NC(=O)CO)cn3n2)cc1C(=O)NCc1cc(C(F)(F)F)ccc1F [Example 183, N-{[2-fluoro-5-(trifluoromethyl)phenyl]methyl}-5-[2-(2-hydroxyacetamido)imidazo [1,2-b]pyridazin-6-yl]-2-methylpyridine-3-carboxamide]",IC50,[1]; Homo sapiens,392 nM
same,IC50,[2],166 nM
"Cc1ncc(-c2ccc3nc(NC(=O)C(C)(C)C#N)cn3n2)cc1C(=O)N[C@H](C)c1cc(OC(F)(F)F)ccc1F [Example 27, 5-[2-(2-cyano-2,2-dimethylacetamido)imidazo[1,2-b]pyridazin-6-yl]-N-[(1R)-1-[2-fluoro-5-(trifluoromethoxy)phenyl]ethyl]-2-methylpyridine-3-carboxamide]",IC50,[1]; Homo sapiens,108 nM
same,IC50,[2],109 nM
"CC(=O)Nc1nc2ccc(-c3cnc(C)c(C(=O)NCc4cc(OC(F)(F)F)ccc4F)c3)nn2c1C [Example 253, 5-{2-acetamido-3-methylimidazo[1,2-b]pyridazin-6-yl}-N-{[2-fluoro-5-(trifluoromethoxy)phenyl]methyl}-2-methylpyridine-3-carboxamide]",IC50,[1]; Homo sapiens,53 nM
same,IC50,[2],14 nM
"[2H]C([2H])([2H])Oc1ncc(-c2ccc3nc(NC(C)=O)cn3n2)cc1C(=O)NCc1ccc(F)c(F)c1OCC1CC1 [Example 53, N-{[2-(cyclopropylmethoxy)-3,4-difluorophenyl]methyl}-5-{2-acetamidoimidazo[1,2-b]pyridazin-6-yl}-2-(D3)methoxypyridine-3-carboxamide]",IC50,[1]; Homo sapiens,81 nM
same,IC50,[2],62 nM
"[2H]C([2H])([2H])Oc1nc(C)c(-c2ccc3nc(NC(C)=O)cn3n2)cc1C(=O)NCc1cc(F)cc(F)c1OC1CC(C)OC(C)C1 (centres unmarked) [Example 167, N-({2-[(2,6-dimethyloxan-4-yl)oxy]-3,5-difluorophenyl}methyl)-5-{2-acetamidoimidazo[1,2-b]pyridazin-6-yl}-2-(deutero)methoxy-6-methylpyridine-3-carboxamide]",IC50,[1]; Homo sapiens,13 nM
same,IC50,[2],18 nM
"[2H]C([2H])([2H])Oc1nc(C)c(-c2ccc3nc(NC(C)=O)cn3n2)cc1C(=O)NCc1cc(OC(F)(F)F)ccc1F [Example 179, 5-{2-acetamidoimidazo[1,2-b]pyridazin-6-yl}-N-{[2-fluoro-5-(trifluoromethoxy)phenyl]methyl}-2-(deutero)methoxy-6-methylpyridine-3-carboxamide]",IC50,[1]; Homo sapiens,13 nM
same,IC50,[2],3 nM
"COc1ncc(-c2ccc3nc(NC(C)=O)cn3n2)cc1C(=O)NCc1ccc(F)c(OCC2CC2)c1 [Example 142, N-{[3-(cyclopropylmethoxy)-4-fluorophenyl]methyl}-5-{2-acetamidoimidazo[1,2-b]pyridazin-6-yl}-2-methoxypyridine-3-carboxamide]",IC50,[1]; Homo sapiens,181 nM
same,IC50,[2],29 nM
"COc1nc(C)c(-c2ccc3nc(NC(C)=O)cn3n2)cc1C(=O)NCc1cccc(C(F)(F)F)c1 [Example 305, 5-{2-acetamidoimidazo[1,2-b]pyridazin-6-yl}-2-methoxy-6-methyl-N-{[3-(trifluoromethyl)phenyl]methyl}pyridine-3-carboxamide]",IC50,[1]; Homo sapiens,77 nM
same,IC50,[2],41 nM
"COc1nc(C)c(-c2ccc3nc(NC(C)=O)cn3n2)cc1C(=O)NCc1cccc(F)c1OCC1CCC1 [Example 288, N-{[2-(cyclobutylmethoxy)-3-fluorophenyl]methyl}-5-{2-acetamidoimidazo[1,2-b]pyridazin-6-yl}-2-methoxy-6-methylpyridine-3-carboxamide]",IC50,[1]; Homo sapiens,1 nM
same,IC50,[2],6 nM
"CC(=O)Nc1cn2nc(-c3ccc(F)c(C(=O)N[C@@H](C)c4cc(OC(F)(F)F)ccc4F)c3F)ccc2n1 [Example 379, 3-{2-acetamidoimidazo [1,2-b]pyridazin-6-yl}-2,6-difluoro-N-[(1S)-1-[2-fluoro-5-(trifluoromethoxy)phenyl]ethyl] benzamide]",IC50,[1]; Homo sapiens,5 nM
same,IC50,[2],1 nM
"COc1nc(C)c(-c2ccc3nc(NC(C)=O)cn3n2)cc1C(=O)NCc1cc(F)cc(C(F)(F)F)c1 [Example 293, 5-{2-acetamidoimidazo[1,2-b]pyridazin-6-yl}-N-{[3-fluoro-5-(trifluoromethyl)phenyl]methyl}-2-methoxy-6-methylpyridine-3-carboxamide]",IC50,[1]; Homo sapiens,135 nM
same,IC50,[2],33 nM
"CC(=O)Nc1cn2nc(-c3cnc(C)c(C(=O)NCC[C@H](O)c4ccc(Cl)cc4)c3)ccc2n1 [Example 216, N-[(3S)-3-(4-chlorophenyl)-3-hydroxypropyl]-5-{2-acetamidoimidazo[1,2-b]pyridazin-6-yl}-2-methylpyridine-3-carboxamide]",IC50,[1]; Homo sapiens,397 nM
same,IC50,[2],66 nM
"COc1nc(C)c(-c2ccc3nc(NC(C)=O)cn3n2)cc1C(=O)NCc1cc(F)cc(OC(F)(F)F)c1 [Example 280, 5-{2-acetamidoimidazo[1,2-b]pyridazin-6-yl}-N-{[3-fluoro-5-(trifluoromethoxy)phenyl]methyl}-2-methoxy-6-methylpyridine-3-carboxamide]",IC50,[1]; Homo sapiens,36 nM
same,IC50,[2],5 nM
"CC(=O)Nc1cn2nc(-c3cnc(Cl)c(C(=O)NCc4cccc(OC(F)(F)F)c4)c3)ccc2n1 [Example 272, 2-chloro-5-{2-acetamidoimidazo[1,2-b]pyridazin-6-yl}-N-{[3-(trifluoromethoxy)phenyl]methyl}pyridine-3-carboxamide, TFA]",IC50,[1],122 nM
same,IC50,[2],26 nM
"COc1cc(F)c(-c2ccc3nc(NC(C)=O)cn3n2)cc1C(=O)NCc1c(F)cccc1OC [Example 420, 5-{2-acetamidoimidazo [1,2-b]pyridazin-6-yl}-4-fluoro-N-[(2-fluoro-6-methoxyphenyl)methyl]-2-methoxybenzamide]",IC50,[1]; Homo sapiens,77 nM
same,IC50,[2],90 nM
"[2H]C([2H])([2H])[C@@H](NC(=O)c1cc(-c2ccc3nc(NC(C)=O)cn3n2)c(C)nc1C)c1cc(OC(F)(F)F)ccc1F [Example 70, 5-{2-acetamidoimidazo[1,2-b]pyridazin-6-yl}-N-[(1R)-1-[2-fluoro-5-(trifluoromethoxy)phenyl](2,2,2-deutero)ethyl]-2,6-dimethylpyridine-3-carboxamide]",IC50,[1]; Homo sapiens,9 nM
same,IC50,[2],9 nM
"CC(=O)Nc1cn2nc(-c3cc(C(=O)NCc4cc(F)cc(F)c4OC4COC4)c(C)nc3C)ccc2n1 [Example 77, N-{[3,5-difluoro-2-(oxetan-3-yloxy)phenyl]methyl}-5-{2-acetamidoimidazo[1,2-b]pyridazin-6-yl}-2,6-dimethylpyridine-3-carboxamide]",IC50,[1]; Homo sapiens,265 nM
same,IC50,[2],17 nM
"5-{2- acetamidoimidazo[1,2-b]pyridazin- 6-yl}-N-{[2-fluoro-5- (trifluoromethyl)phenyl]methyl}-2- methoxypyridine-3-carboxamide [Example 146]",IC50,[1],48 nM
same,IC50,[2],17 nM
"CC(=O)Nc1cn2nc(-c3cc(C(=O)NCc4c(F)cccc4OCC(F)(F)F)c(C)nc3C)ccc2n1 [Example 325, 5-{2-acetamidoimidazo[1,2-b]pyridazin-6-yl}-N-{[2-fluoro-6-(2,2,2-trifluoroethoxy)phenyl]methyl}-2,6-dimethylpyridine-3-carboxamide]",IC50,[1]; Homo sapiens,17 nM
same,IC50,[2],9 nM
